Measurements as given in patent US20070054848A1, “Composition and method for nerve regeneration” (priority 2003, published 2007).
Entries after “also recorded” stand apart in the source; their conditions may differ. Where no end group is shown, it is not given here. The star is where a group is joined. TAT = PTD (protein transduction domain) peptide fused to the peptide; Myristoyl = CCCCCCCCCCCCCC(=O)*

Legend:
[1] = test system: cerebellar granule neurons; test: Fluorescence Ca2+ imaging (Oregon-green 488BAPTA-1 and Fura Red); type: cell-based; settings: p7 rat cerebellar granule neurons
[2] = test system: cerebellar granule neurons from P7 rats; test: Neurite outgrowth assay, cerebellar neurons; type: cell-based, rat; settings: P7 rat cerebellar granule neurons
[3] = test system: hippocampal neurons; type: cell-based; settings: data not shown
[4] = test system: superior cervical ganglion neurons; type: cell-based; settings: 100 ng/ml BDNF; data not shown
[5] = test system: DRG neurons; test: Neurite outgrowth assay, DRG neurons; type: cell-based, mice
[6] = biological target: T1, p75 (Homo sapiens, UniProt P08138); test: Co-precipitation of p75 and Rho GDI with purified recombinant proteins; type: binding; settings: 1 μM GST-Rho GDI and Pep5 at the indicated concentrations
T1 construct: host or cells: 293T cells (p75)
T1 sequence (P08138 29-427): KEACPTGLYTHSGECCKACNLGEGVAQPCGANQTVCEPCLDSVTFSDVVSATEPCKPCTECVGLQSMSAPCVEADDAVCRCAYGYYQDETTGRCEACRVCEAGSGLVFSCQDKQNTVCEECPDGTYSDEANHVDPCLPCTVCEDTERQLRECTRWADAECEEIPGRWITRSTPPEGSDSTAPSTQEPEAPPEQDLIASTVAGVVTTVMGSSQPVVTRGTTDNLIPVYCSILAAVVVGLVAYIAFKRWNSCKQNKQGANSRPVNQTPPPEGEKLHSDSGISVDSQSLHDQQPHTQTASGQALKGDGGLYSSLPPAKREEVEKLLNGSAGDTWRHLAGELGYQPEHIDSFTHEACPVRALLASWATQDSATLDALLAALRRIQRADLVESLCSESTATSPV

[7] = biological target: T2, p75 (Mus musculus, UniProt Q9Z0W1); test: Co-precipitation of p75 with recombinant GST-Pep5; type: binding; settings: lysates prepared from post-natal cerebellum
T2 construct: was incubated with lysates prepared from post-natal cerebellum that abundantly express p75; from tissue; host or cells: post-natal cerebellum
T2 sequence (Q9Z0W1 32-427): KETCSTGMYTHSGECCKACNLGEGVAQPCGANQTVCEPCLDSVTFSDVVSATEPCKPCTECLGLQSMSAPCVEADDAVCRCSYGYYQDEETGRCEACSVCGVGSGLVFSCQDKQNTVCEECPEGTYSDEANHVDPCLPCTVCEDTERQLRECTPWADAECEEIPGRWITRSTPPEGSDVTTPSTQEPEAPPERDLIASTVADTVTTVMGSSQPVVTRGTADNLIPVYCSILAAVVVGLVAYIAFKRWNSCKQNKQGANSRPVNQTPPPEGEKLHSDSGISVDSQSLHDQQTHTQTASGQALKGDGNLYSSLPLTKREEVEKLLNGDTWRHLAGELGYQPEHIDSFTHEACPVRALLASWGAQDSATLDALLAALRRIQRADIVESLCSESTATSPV
Description: As all the myelin-derived inhibitors of axonal regeneration identified so far act on neurons through p75, intervening with p75 signaling after injury to the central nervous system may alleviate myelin-dependent inhibition of axonal regeneration. […] The specific peptide ligand to the p75 HD was previously obtained from a combinatorial library (Ilag, L. L. et al., Biochem Biophys Res Commun. 255, 104-109 (1999)). This ligand is a 15 amino acid residue peptide (Pep5; […] (SEQ ID NO: 2)) and the binding site was mapped by nuclear magnetic resonance spectroscopy onto a hydrophobic patch framed by helices 5 and 6. […] The present inventors first confirmed whether p75 associates with Pep5. Glutathione S-transferase-fusion protein containing Pep5 (GST-Pep5) was incubated with lysates prepared from post-natal cerebellum that abundantly express p75. […] Therefore, Pep5 has a potential to disrupt the signal mediated by p75 in vitro. As the peptide ligand must gain entry into the cell if it is to act directly on the p75 HD in vivo, the present inventors generated Pep5 fused with the amino-terminal 11 amino acid protein transduction domain (PTD domain) from the human immunodeficiency virus protein, TAT (TAT-Pep5) (Schwarze, S. R., Ho, A., Vocero-Akbani, A. & Dowdy, S. F., Science 285, 1569-1572 (1999)). […] Thus, Pep5 may be used as an inhibitor of Rho GDI association with p75.

[8] = test system: DRG neurons from P1 rats; test: Neurite outgrowth assay, dissociated DRG neurons; type: cell-based, rat
[9] = test system: E12 chick dorsal root ganglia explants; test: Growth cone collapse assay; type: cell-based; settings: chick E12 DRG explants; myelin 0.1 to 10 ng/μl
Procedure: Explants of E12 chick dorsal root ganglia were incubated for 24 hours on plastic slides precoated with 100 μg/ml poly-L-lysine, and were treated for 30 minutes with soluble CNS myelin extracts (Sigma) at the indicated concentrations (MAG-Fc (25 μg/ml) or the Nogo peptide (4 μM)). Explants were fixed in 4% (wt/vol) paraformaldehyde, and were stained with fluorescence-labeled phalloidin (Sigma).

[10] = test system: RhoA; test: Affinity-precipitation of GTP-RhoA; type: cell-based; settings: P7 rat cerebellar neurons
Procedure: Cells were lysed in 50 mM Tris, pH 7.5, 1% Triton X-100, 0.5% sodium deoxycholate, 0.1% SDS, 500 mM NaCl, 10 mM MgCl2, with leupeptin and aprotinin, each at 10 μg/ml (Tang S. et al., J. Cell Biol., 138, 1355-1366 (1997)). Cell lysates were clarified by centrifugation at 13,000 g at 4° C. for 10 min, and the supernatants were incubated with the 20 μg of GST-Rho binding domain of Rhotekin beads (Upstate Biotechnology) at 4° C. for 45 min. The beads were washed 4 times with washing buffer (50 mM Tris, pH 7.5 containing 1% Triton X-100, 150 mM NaCl, 10 mM MgCl2, 10 μg/ml leupeptin, and 10 μg/ml aprotinin). Bound Rho proteins were detected by Western blotting using a monoclonal antibody against RhoA (Santa Cruz Biotechnology).
To address this, we measured RhoA activity in the neurons. Using the RhoA-binding domain of the effector protein Rhotekin (Ren, X. D. et al., EMBO J., 18, 578-585 (1999)), the GTP-bound form of RhoA can be affinity-precipitated. […] The PKC inhibitor had no effect on the Rho activity induced by MAG-Fc or the Nogo peptide. Thus, promotion of neurite outgrowth of the cerebellar neurons by inhibition of PKC was not mediated by the block of RhoA activation, showing that PKC is not upstream of RhoA.

[11] = test system: nerve regeneration; test: Similar experiments with modified amino acid agents (Example 2-8)
Procedure: Similar experiments were carried out using Pep5 in which alanine was added to the C terminus of the sequence (SEQ ID NO: 2), antibodies for the extracellular domain of p75, and p75 in which alanine was replaced with valine at amino acid 423 in positions 273-427 of SEQ ID NO: 4.

[12] = biological target: T3, interaction of p75 with Rho GDI (Mus musculus, UniProt Q9Z0W1); test: Co-immunoprecipitation of endogenous p75 and Rho GDI in cerebellar neurons; type: cell-based, mice; settings: dissociated cerebellar neurons
T3 construct: endogenous in cells; host or cells: primary cerebellar neurons from P9 mice
T3 sequence (Q9Z0W1 32-427): T2 sequence (Q9Z0W1 32-427)

[13] = test system: spinal cord; test: Similar spinal cord experiments in mice (Example 2-7); type: in vivo
[14] = test system: RhoA; test: Affinity-precipitation of GTP-RhoA in cerebellar neurons; type: cell-based, mice; settings: post-natal cerebellar neurons; TAT-Pep5 (1 μM)
Procedure: 293 cells were transfected with pcDNA3 vectors containing wild type RhoA whose NH2-terminus is tagged with HA (Yamashita, T. et al., Neuron. 24:585-593, 1999) and/or full-length human p75 by lipofection using Lipofectamine 2000 (Gibco BRL). Cerebellar neurons from P9 mice were isolated as described previously (Cai et. al, Neuron, 22:89-101, 1999). Cells were lysed in 50 mM Tris (pH 7.5), 1% Triton X-100, 0.5% sodium deoxycholate, 0.1% SDS, 500 mM NaCl, 10 mM MgCl2, with leupeptin and aprotinin, each at 10 μg/ml. Cell lysates were clarified by centrifugation at 13,000×g at 4° C. for 10 min, and the supernatants were incubated with the 20 μg of GST-Rho binding domain of Rhotekin beads (Upstate Biotech.) at 4° C. for 45 min. The beads were washed 4 times with washing buffer (50 mM Tris (pH 7.5) containing 1% Triton X-100, 150 mM NaCl, 10 mM MgCl2, 10 μg/ml each of leupeptin and aprotinin). Bound Rho proteins were detected by Western blotting using a monoclonal antibody against RhoA (Santa Cruz Biotechnology).
Amino-terminally FLAG-tagged human p75 or the deletion mutants of p75 ICD were cloned into pcDNA3.1 expression plasmid, and were transfected with 293T cells. […] Bound Rho proteins were detected by Western blotting using a monoclonal antibody against RhoA (Santa Cruz Biotechnology).

[15] = test system: cerebellar neurons; test: Neurite outgrowth assay, post-natal cerebellar neurons; type: cell-based, mice; settings: post-natal cerebellar neurons
[16] = test system: spinal cord; test: Spinal cord injury in rats (dorsal half dissected), BBB score; type: in vivo, rat; settings: 200 g male Wistar rats; continuous osmotic pump to the injured site
[17] = test system: spinal cord; test: Spinal cord injury in rats, p21 / TAT-bound p21, BBB score; type: in vivo, rat; settings: 200 g male Wistar rats; osmotic pump for 2 weeks; observed from day 2 for 6 weeks
[18] = biological target: catalytic domain of Rho-kinase (GST-CAT) (Bos taurus, UniProt Q28021); test: In vitro binding assay of p21 and Rho-kinase (GST-CAT); settings: GST-CAT; aa 6-553
Chain of catalytic domain of Rho-kinase (GST-CAT) (Q28021 6-553 limits assumed): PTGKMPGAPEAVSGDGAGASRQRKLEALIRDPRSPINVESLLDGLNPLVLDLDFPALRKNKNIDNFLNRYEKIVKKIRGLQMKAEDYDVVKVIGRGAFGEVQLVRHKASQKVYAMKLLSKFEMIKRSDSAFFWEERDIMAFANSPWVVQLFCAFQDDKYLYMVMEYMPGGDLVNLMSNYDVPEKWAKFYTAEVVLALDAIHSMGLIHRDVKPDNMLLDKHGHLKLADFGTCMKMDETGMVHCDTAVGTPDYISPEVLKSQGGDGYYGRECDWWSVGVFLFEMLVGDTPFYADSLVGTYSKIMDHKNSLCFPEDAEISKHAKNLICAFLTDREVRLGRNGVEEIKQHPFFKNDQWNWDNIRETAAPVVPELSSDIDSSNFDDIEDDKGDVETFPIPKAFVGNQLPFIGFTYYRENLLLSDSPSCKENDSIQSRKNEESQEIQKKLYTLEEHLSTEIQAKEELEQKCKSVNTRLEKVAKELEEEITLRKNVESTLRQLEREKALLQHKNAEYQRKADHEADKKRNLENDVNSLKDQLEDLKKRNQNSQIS

`COc1ccc2c(c1)CC[C@@H]1[C@@H]2CC[C@]2(C)[C@@H](NCCCCCCN3C(=O)C=CC3=O)CC[C@@H]12` [U73122] was tested, and the “effect on Ca2+ elevation induced by MAG” value [1] was “blocked” and the “modulation of neurite outgrowth inhibition by MAG-Fc or the Nogo peptide” value [2] was “neither PTX nor U73122 modulated”.
In the case of CFFRGGFFNHNPRYC [Pep5], the “NGF-induced promotion of the neurite outgrowth” value [3] is reported as “did not inhibit”, the “cell death of superior cervical ganglion neurons” value [4] is reported as “did not inhibit” and the “neurite outgrowth of neurons which express the short isoform but not the full-length p75” value [5] is reported as “did not affect the neurite outgrowth”. For the same molecule, the “association of p75 with Rho GDI” value [6] was “inhibited the association of p75 with Rho GDI dose dependently; also recorded: inhibits the binding of p75 with Rho GDI dose dependently”.
“GST-Pep5: Glutathione S-transferase-fusion protein containing Pep5” was tested, and the “co-precipitation of p75” value [7] was “revealed the presence of a protein corresponding to p75”.
With “PKC inhibitor: cell permeable PKC inhibitor 20-28 (Calbiochem), specific membrane permeable PKC inhibitor peptide (Myristoyl-FARKGALRQ; not fully specified (C-terminus); UniProt P17252 20-28, looked up, fragment)” the “modulation of MAG-Fc effect on neurite outgrowth” value [8] was “no modulating effect”, the “effect on growth cone collapse mediated by myelin” value [9] was “completely reversed” and the “effect on Rho activity induced by MAG-Fc or the Nogo peptide” value [10] was “no effect”. The “neurite outgrowth (substance alone)” value ([2]; MAG-Fc 25 μg/ml, Nogo peptide 4 μM) was “no effect on the growth”.
With “Pep5 in which alanine was added to the C terminus: Pep5 in which alanine was added to the C terminus of the sequence (SEQ ID NO: 2) (CFFRGGFFNHNPRYC)” the nerve regeneration [11] was “nerve regeneration was similarly observed”.
For “TAT-CFFRGGFFNHNPRYC ({TAT}-CFFRGGFFNHNPRYC; cysteine pairing not given here; also: TAT (PTD) sequence not fixed) [TAT-Pep5, Pep5 fused with the amino-terminal 11 amino acid protein transduction domain from HIV TAT]”, the “interaction of p75 with Rho GDI induced by MAG-Fc” value [12] was “significantly inhibited; also recorded: diminished”, the “responsiveness of DRG neurons to MAG (25 μg/ml) and the Nogo peptide (4 μM), neurite outgrowth” value ([5]; added exogenously at 100 nM) was “abolished their responsiveness” and the nerve regeneration [13] was “nerve regeneration was similarly observed”. The “activation of RhoA induced by MAG-Fc or the Nogo peptide” value [14] was “inhibited the activation of RhoA; also recorded: completely abolishes these effects”, the “inhibitory effect of MAG (25 μg/ml) and the Nogo peptide (4 μM) on neurite outgrowth” value [15] was “efficiently silenced the inhibitory effect” and the “nerve regeneration after spinal cord injury” value [16] was “nerve regeneration was significantly observed”.
For “p21: Recombinant full-length p21 (1-164 in SEQ ID NO: 23), cyclin-dependent protein kinase inhibitor”, the “functional recovery after spinal cord injury (BBB score)” value [17] was “an effect was not sufficiently observed” and the “in vitro interaction with Rho-kinase” value [18] was “bound to each other in vitro”.
